Results: PubChem BioAssay AID2060622 (Molecular Pharmacology Branch, DTP, NCI, 2025)
“And” between values parts separate entries of the source, which are not always exact repeats. Equal entries are not always repeated. One block for each compound: values may come before it.

Test system: 242566-281-R-J2-PDC complex spheroid viability
Test: Anticancer human tumor 242566-281-R-J2-PDC patient-derived pancreatic carcinoma cell line growth inhibition [CLK]
Conditions: for viability, T/C: stronger effect = lower value
Method in brief: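 Multi-cell-type spheroids combined patient-derived tumor cells with HUVEC endothelial cells and human mesenchymal stem cells. Paired agents were dosed in half-log steps down from about clinical Cmax, or from 10 microM where Cmax was unknown.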

[1] = curve of first compound, second compound 0.0316 µM
[2] = curve of first compound, second compound 0.1 µM
[3] = curve of first compound, second compound 0.316 µM
[4] = curve of first compound, second compound 1 µM
[5] = curve of first compound, second compound 3.16 µM
[6] = curve of first compound, second compound 10 µM
[7] = second compound 0.0316 µM, first compound 0.0316 µM
[8] = second compound 0.0316 µM, first compound 0.1 µM
[9] = second compound 0.0316 µM, first compound 0.316 µM
[10] = second compound 0.0316 µM, first compound 1 µM
[11] = second compound 0.0316 µM, first compound 3.16 µM
[12] = second compound 0.0316 µM, first compound 10 µM
[13] = second compound 0.1 µM, first compound 0.0316 µM
[14] = second compound 0.1 µM, first compound 0.1 µM
[15] = second compound 0.1 µM, first compound 0.316 µM
[16] = second compound 0.1 µM, first compound 1 µM
[17] = second compound 0.1 µM, first compound 3.16 µM
[18] = second compound 0.1 µM, first compound 10 µM
[19] = second compound 0.316 µM, first compound 0.0316 µM
[20] = second compound 0.316 µM, first compound 0.1 µM
[21] = second compound 0.316 µM, first compound 0.316 µM
[22] = second compound 0.316 µM, first compound 1 µM
[23] = second compound 0.316 µM, first compound 3.16 µM
[24] = second compound 0.316 µM, first compound 10 µM
[25] = second compound 1 µM, first compound 0.0316 µM
[26] = second compound 1 µM, first compound 0.1 µM
[27] = second compound 1 µM, first compound 0.316 µM
[28] = second compound 1 µM, first compound 1 µM
[29] = second compound 1 µM, first compound 3.16 µM
[30] = second compound 1 µM, first compound 10 µM
[31] = second compound 3.16 µM, first compound 0.0316 µM
[32] = second compound 3.16 µM, first compound 0.1 µM
[33] = second compound 3.16 µM, first compound 0.316 µM
[34] = second compound 3.16 µM, first compound 1 µM
[35] = second compound 3.16 µM, first compound 3.16 µM
[36] = second compound 3.16 µM, first compound 10 µM
[37] = second compound 10 µM, first compound 0.0316 µM
[38] = second compound 10 µM, first compound 0.1 µM
[39] = second compound 10 µM, first compound 0.316 µM
[40] = second compound 10 µM, first compound 1 µM
[41] = second compound 10 µM, first compound 3.16 µM
[42] = second compound 10 µM, first compound 10 µM
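Further: spheroids exposed to compounds for 7 days before readout.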
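Wherever viability, T/C is given: 100% = DMSO vehicle control wells.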

- IC50 (curve of compound): > 10 µM
Structure (SMILES): O=c1[nH]cc(F)c(=O)[nH]1
- viability, T/C (compound 0.0316 µM): 103% and 83.7%
- viability, T/C (compound 0.1 µM): 104% and 86%
- viability, T/C (compound 0.316 µM): 95.3% and 77.2%
- viability, T/C (compound 1 µM): 67.9% and 91.2%
- viability, T/C (compound 3.16 µM): 56.6% and 65%
- viability, T/C (compound 10 µM): 52.4% and 53.3%

- IC50 [1]: > 10 µM
- IC50 [2]: > 10 µM
- IC50 [3]: > 10 µM
- IC50 [4]: > 10 µM
- IC50 [5]: > 10 µM
- IC50 [6]: > 10 µM
Structure (SMILES): C=CC(=O)N1CCN(c2nc(=O)n(-c3c(C)ccnc3C(C)C)c3nc(-c4c(O)cccc4F)c(F)cc23)C(C)C1 (stereo not drawn) + CNC(=O)c1ccc(Nc2nc(OC3CCCC3)c3c(-c4ccc5nc(C)oc5c4)c[nH]c3n2)c(OC)c1
- viability, T/C [7]: 104%
- viability, T/C [8]: 94%
- viability, T/C [9]: 120%
- viability, T/C [10]: 128%
- viability, T/C [11]: 89%
- viability, T/C [12]: 73.9%
- viability, T/C [13]: 101%
- viability, T/C [14]: 115%
- viability, T/C [15]: 87.7%
- viability, T/C [16]: 104%
- viability, T/C [17]: 88.1%
- viability, T/C [18]: 70.9%
- viability, T/C [19]: 95.7%
- viability, T/C [20]: 92%
- viability, T/C [21]: 74.3%
- viability, T/C [22]: 87.1%
- viability, T/C [23]: 71.1%
- viability, T/C [24]: 67.3%
- viability, T/C [25]: 79.3%
- viability, T/C [26]: 68.1%
- viability, T/C [27]: 72.5%
- viability, T/C [28]: 69.6%
- viability, T/C [29]: 70.7%
- viability, T/C [30]: 57.2%
- viability, T/C [31]: 60.5%
- viability, T/C [32]: 52.6%
- viability, T/C [33]: 52.9%
- viability, T/C [34]: 56.4%
- viability, T/C [35]: 58.1%
- viability, T/C [36]: 54.8%
- viability, T/C [37]: 54.5%
- viability, T/C [38]: 53.6%
- viability, T/C [39]: 58.8%
- viability, T/C [40]: 53%
- viability, T/C [41]: 53.6%
- viability, T/C [42]: 51.8%

- IC50 (curve of compound): 5.96 µM and 5.64 µM
Structure (SMILES): CCCS(=O)(=O)Nc1ccc(F)c(C(=O)c2c[nH]c3ncc(-c4ccc(Cl)cc4)cc23)c1F
- viability, T/C (compound 0.0316 µM): 109% and 86.7%
- viability, T/C (compound 0.1 µM): 104% and 98.7%
- viability, T/C (compound 0.316 µM): 94% and 81.7%
- viability, T/C (compound 1 µM): 106% and 86%
- viability, T/C (compound 3.16 µM): 104% and 115%
- viability, T/C (compound 10 µM): 6.44% and 6.7%

Structure (SMILES): C#Cc1c(F)ccc2cc(O)cc(-c3ncc4c(N5CC6CCC(C5)N6)nc(OCC56CCCN5CC(F)C6)nc4c3F)c12 (stereo not drawn) + CN1CCN(c2cc(C(=O)Nc3cc4cc(-c5cnn(C)c5)ccc4cn3)ccn2)CC1
- IC50 [1]: 0.0846 µM
- IC50 [2]: 0.0653 µM
- IC50 [3]: < 0.0316 µM
- IC50 [4]: < 0.0316 µM
- IC50 [5]: < 0.0316 µM
- IC50 [6]: < 0.0316 µM
- viability, T/C [7]: 63.9%
- viability, T/C [8]: 47.5%
- viability, T/C [9]: 34%
- viability, T/C [10]: 29.4%
- viability, T/C [11]: 23.9%
- viability, T/C [12]: 17.1%
- viability, T/C [13]: 61.3%
- viability, T/C [14]: 42.9%
- viability, T/C [15]: 31.1%
- viability, T/C [16]: 19.9%
- viability, T/C [17]: 18.5%
- viability, T/C [18]: 15.5%
- viability, T/C [19]: 18.4%
- viability, T/C [20]: 13.2%
- viability, T/C [21]: 12.2%
- viability, T/C [22]: 10.6%
- viability, T/C [23]: 7.18%
- viability, T/C [24]: 3.44%
- viability, T/C [25]: 1.87%
- viability, T/C [26]: 1.39%
- viability, T/C [27]: 1.09%
- viability, T/C [28]: 1.22%
- viability, T/C [29]: 1.43%
- viability, T/C [30]: 1.26%
- viability, T/C [31]: 2.9%
- viability, T/C [32]: 2.24%
- viability, T/C [33]: 2.74%
- viability, T/C [34]: 2.35%
- viability, T/C [35]: 2.06%
- viability, T/C [36]: 1.51%
- viability, T/C [37]: 1.01%
- viability, T/C [38]: 0.76%
- viability, T/C [39]: 0.69%
- viability, T/C [40]: 0.78%
- viability, T/C [41]: 0.71%
- viability, T/C [42]: 0.34%
